Values quoted from earlier work in US20050266073A1, “Fast disintegrating granules containing bromhexin/bromhexinhydrochloride, process for their preparation, and their use in veterinary medicine” (Boehringer Ingelheim Vetmedica GmbH, priority 2004, published 2005).

Tests used:
[1] = not given; remark: listed apart in the source

Row | solubility in water [g/250 ml] | solubility in water (in words) | solubility in ethanol, methanol and methylene chloride (in words) [1] | Structure (SMILES)
1 | 1 | soluble with difficulty |  | CN(Cc1cc(Br)cc(Br)c1N)C1CCCCC1 [Bromhexin, N-cyclohexyl-N-methyl-(2-amino-3,5-dibrombenzyl)amine]
2 |  |  | dissolves with difficulty | CN(Cc1cc(Br)cc(Br)c1N)C1CCCCC1.Cl [Bromhexinhydrochloride]
